Data from ChEMBL document CHEMBL4627312, “Anilinopyrazines as potential mitochondrial uncouplers” (Bioorg Med Chem Lett, 2020).
Calls of active or inactive are those of the source. No cut-off for these calls is given here.

Key:
[1] = tested on: L6; test: Induction of mitochondrial uncoupling in rat L6 cells assessed as oxygen consumption rate measured after 45 to 90 mins by seahorse XFe96 analyser based assay relative to control; details: Mitochondria
[2] = Induction of mitochondrial uncoupling in rat L6 cells assessed as oxygen consumption rate measured after 45 to 90 mins by seahorse XFe96 analyser based assay; format: mitochondria, Mitochondria
[3] = tested on: L6; test: Induction of mitochondrial uncoupling in rat L6 cells assessed as oxygen consumption rate at 0.01 to 50 uM measured after 45 to 90 mins by seahorse XFe96 analyser based assay; details: Mitochondria

SMILES	Emax [1]	EC50 [2]	Activity [3]
FC(F)(F)c1cc(Nc2nccnc2Nc2cc(C(F)(F)F)cc(C(F)(F)F)c2)cc(C(F)(F)F)c1	148%	17 µM	–
Fc1cccc(Nc2nccnc2Nc2cccc(F)c2)c1	106%	–	inactive
Fc1ccc(Nc2nccnc2Nc2ccc(F)cc2)cc1	101%	–	inactive
COc1cccc(Nc2nc(Nc3cccc(OC)c3)nc(Nc3cccc(OC)c3)n2)c1	103%	–	inactive
FC(F)(F)c1ccc(Nc2cncc(Nc3ccc(C(F)(F)F)cc3)n2)cc1	103%	–	inactive
FC(F)(F)Oc1cccc(Nc2cnc(Nc3cccc(OC(F)(F)F)c3)cn2)c1	101%	–	inactive
FC(F)(F)c1cccc(Nc2cnc(Nc3cccc(C(F)(F)F)c3)cn2)c1	140%	–	inactive
FC(F)(F)c1cc(Nc2cncc(Nc3cc(C(F)(F)F)cc(C(F)(F)F)c3)n2)cc(C(F)(F)F)c1	105%	–	inactive
FC(F)(F)Oc1ccc(Nc2cnc(Nc3ccc(OC(F)(F)F)cc3)cn2)cc1	102%	–	inactive
COc1ccccc1Nc1nc(Nc2ccccc2OC)nc(Nc2ccccc2OC)n1	103%	–	inactive
COc1cccc(Nc2nccnc2Nc2cccc(OC)c2)c1	101%	–	–
FC(F)(F)c1cccc(Nc2nc(Nc3cccc(C(F)(F)F)c3)nc(Nc3cccc(C(F)(F)F)c3)n2)c1	103%	–	inactive
FC(F)(F)c1cccc(Nc2nccnc2Nc2cccc(C(F)(F)F)c2)c1	181%	3 µM	–
FC(F)(F)c1ccccc1Nc1nccnc1Nc1ccccc1C(F)(F)F	104%	–	–
Fc1ccc(Nc2nccnc2Nc2ccc(F)cc2F)c(F)c1	109%	–	inactive
COc1ccc(Nc2nc(Nc3ccc(OC)cc3)nc(Nc3ccc(OC)cc3)n2)cc1	104%	–	inactive
FC(F)(F)Oc1ccc(Nc2nccnc2Nc2ccc(OC(F)(F)F)cc2)cc1	258%	5.9 µM	–
FC(F)(F)Oc1ccccc1Nc1nccnc1Nc1ccccc1OC(F)(F)F	114%	–	inactive
Fc1cccc(Nc2nccnc2Nc2cccc(F)c2F)c1F	108%	–	inactive
FC(F)(F)c1ccc(Nc2nccnc2Nc2ccc(C(F)(F)F)cc2)cc1	260%	2.5 µM	–
Fc1ccc(C(F)(F)F)cc1Nc1nccnc1Nc1cc(C(F)(F)F)ccc1F	100%	–	–
FC(F)(F)c1ccc(Nc2cnc(Nc3ccc(C(F)(F)F)cc3)cn2)cc1	107%	–	inactive
Fc1cc(C(F)(F)F)ccc1Nc1nccnc1Nc1ccc(C(F)(F)F)cc1F	164%	8.5 µM	–
FC(F)(F)Oc1cccc(Nc2nccnc2Nc2cccc(OC(F)(F)F)c2)c1	343%	12 µM	–
COc1ccccc1Nc1nccnc1Nc1ccccc1OC	102%	–	–
Fc1ccccc1Nc1nc(Nc2ccccc2F)nc(Nc2ccccc2F)n1	102%	–	inactive
FC(F)(F)c1ccc(Nc2nc(Nc3ccc(C(F)(F)F)cc3)nc(Nc3ccc(C(F)(F)F)cc3)n2)cc1	100%	–	inactive
FC(F)(F)Oc1cccc(Nc2cncc(Nc3cccc(OC(F)(F)F)c3)n2)c1	105%	–	inactive
FC(F)(F)Oc1ccc(Nc2cncc(Nc3ccc(OC(F)(F)F)cc3)n2)cc1	107%	–	inactive
